# Paper PMC7468206, “Molecular Deceleration Regulates Toxicant Release to Prevent Cell Damage in Pseudomonas putida S16 (DSM 28022)” (mBio, 2020)
# Biological target: T1, full-length (FL) wild-type (WT) NicA2 (Pseudomonas putida, UniProt F8G0P2)
# T1 construct: full length, C-terminal 6xHis (pET28a), E. coli BL21(DE3); FAD-containing; the assays say only WT NicA2, full length inferred from cloning section
# T1 sequence (F8G0P2 1-482): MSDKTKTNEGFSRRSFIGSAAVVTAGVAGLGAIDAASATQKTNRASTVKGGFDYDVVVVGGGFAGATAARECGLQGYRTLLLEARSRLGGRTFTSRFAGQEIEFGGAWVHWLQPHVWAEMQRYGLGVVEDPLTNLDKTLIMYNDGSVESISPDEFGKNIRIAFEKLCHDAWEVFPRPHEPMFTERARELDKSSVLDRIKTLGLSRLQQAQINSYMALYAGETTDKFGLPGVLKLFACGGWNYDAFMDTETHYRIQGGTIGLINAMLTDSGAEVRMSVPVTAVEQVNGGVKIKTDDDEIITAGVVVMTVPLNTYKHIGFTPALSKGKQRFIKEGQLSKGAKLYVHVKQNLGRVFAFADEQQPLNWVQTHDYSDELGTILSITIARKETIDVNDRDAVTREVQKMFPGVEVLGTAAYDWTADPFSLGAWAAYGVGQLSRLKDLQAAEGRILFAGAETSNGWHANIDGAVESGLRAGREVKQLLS
# Assay: Ni-NTA removal of enzyme, GC of free versus total product
# Assay type: binding
# Details: 25 °C, 1.5 h, equimolar nicotine; product formed in situ; construct (full length or 21-482) not stated
smiles,measurement,value
CNCCCC(=O)c1cccnc1 [pseudooxynicotine],"Ni-NTA removal of enzyme, GC of free versus total product",only one-fourth of the PN produced in the reaction system was released to solution by NicA2
